# Assay results reported in ChEMBL document CHEMBL1132262, “Estrogen receptor subtype-selective ligands: asymmetric synthesis and biological evaluation of cis- and trans-5,11-dialkyl- 5,6,11, 12-tetrahydrochrysenes” (J Med Chem, 1999).
# Molecular target: Estrogen receptor beta (Homo sapiens) (UniProt Q92731)
# Experiment: Binding affinity for human ER(estrogen receptor)beta
# Sequence of Estrogen receptor beta (Homo sapiens) (Q92731 whole entry): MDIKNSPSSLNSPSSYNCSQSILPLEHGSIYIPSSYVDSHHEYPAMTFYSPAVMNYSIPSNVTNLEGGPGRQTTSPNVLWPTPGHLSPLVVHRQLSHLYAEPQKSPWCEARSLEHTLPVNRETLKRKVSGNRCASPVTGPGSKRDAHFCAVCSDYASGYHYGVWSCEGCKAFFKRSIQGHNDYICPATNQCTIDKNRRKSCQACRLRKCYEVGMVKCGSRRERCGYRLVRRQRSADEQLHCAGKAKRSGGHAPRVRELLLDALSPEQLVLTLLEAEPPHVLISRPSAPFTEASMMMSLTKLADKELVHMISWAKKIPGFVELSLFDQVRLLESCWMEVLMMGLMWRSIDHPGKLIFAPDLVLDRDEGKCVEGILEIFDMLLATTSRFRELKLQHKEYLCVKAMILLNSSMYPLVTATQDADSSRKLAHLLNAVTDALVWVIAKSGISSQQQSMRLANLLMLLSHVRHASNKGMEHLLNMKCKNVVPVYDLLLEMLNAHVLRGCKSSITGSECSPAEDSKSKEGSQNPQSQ
row,Structure (SMILES),Relative binding affinity
1,C[C@]12CC[C@@H]3c4ccc(O)cc4CC[C@H]3[C@@H]1CC[C@@H]2O,100
2,CCC[C@@H]1Cc2cc(O)ccc2C2=C1c1ccc(O)cc1C[C@H]2CCC,26
3,"CC1Cc2cc(O)ccc2C2=C1c1ccc(O)cc1C[C@@H]2C (single isomer, unassigned)",75
4,CCC[C@H]1Cc2cc(O)ccc2C2=C1c1ccc(O)cc1C[C@@H]2CCC,5.1
5,"CC1Cc2cc(O)ccc2C2=C1c1ccc(O)cc1C[C@H]2C (single isomer, unassigned)",76
6,CCCC1Cc2cc(O)ccc2C2=C1c1ccc(O)cc1CC2CCC (stereo not drawn),92.3
7,Oc1ccc2c(c1)CCC1=C2CCc2cc(O)ccc21,6.5
8,C[C@@H]1Cc2cc(O)ccc2C2=C1c1ccc(O)cc1C[C@@H]2C,254
